# From PMC11768839 (Viruses, 2024)
# “And” between values parts separate entries of the source, which are not always exact repeats. Equal values may be shown once.
# What was measured:
# [1] = in vitro; details: human
# [2] = tested on: Influenza A Virus (PR8); assay: Influenza PR8 TCID50 assay (infectivity) in A549 cells; details: MOI of 2, A549 cells
# [3] = Cytotoxicity in Huh7 cells (alamarBlue); type: cell-based; details: human, listed with HCoV-229E qPCR assay
# [4] = tested on: Coronavirus (HCoV-229E); assay: HCoV-229E qPCR assay (viral RNA release into media) in Huh7 cells
# [5] = tested on: HAdV-C5; assay: Adenovirus HAdV-C5 virus yield in A549 cells (endpoint dilution); type: cell-based, human adenovirus serotype 5; details: 5 µM, HAdV-C5 100 IU/cell, 24 hpi
# [6] = tested on: SARS-CoV-2; type: cell-based
# [7] = tested on: SARS-CoV-2 nucleocapsid (N) protein; assay: SARS-CoV-2 nucleocapsid (N) protein expression by western blot; type: cell-based; details: SARS-CoV-2 SB2, Huh7 cells, immunoblot
# [8] = tested on: HCoV-229E; assay: HCoV-229E intracellular viral RNA accumulation after delayed compound addition; type: cell-based; details: compound added 16 hpi, 9 h after addition, MOI 2, Huh7 cells
# [9] = Pharmacokinetics in mice; type: in vivo
# [10] = type: in vivo
# [11] = tested on: HCoV-OC43; assay: HCoV-OC43 replication in human lung organoids (RTqPCR of media); type: cell-based; details: 2.5 µM added post-infection, MOI of 2, 3 or 6 days post-infection
# [12] = tested on: SARS-CoV-2; assay: SARS-CoV-2 replication in human lung organoids (RTqPCR of media); type: cell-based; details: 2.5 µM added post-infection, SB2, MOI of 2, 3 or 6 days post-infection
# [13] = tested on: A549 cells
# [14] = tested on: HIV-1; set-up: method as in earlier work; details: HIV-1 replication; cited from earlier work
# [15] = tested on: HCoV-OC43; assay: HCoV-OC43 viral release into media (RTqPCR) in Huh7 cells; details: 2.5 µM, MOI of 2, 24 h
# [16] = tested on: HCoV-229E; assay: HCoV-229E infectious virus yield by TCID50 assay in Huh7 cells; details: dose reducing HCoV-229E RNA in media by 50% (EC50, 1.2 µM), 24 h
# [17] = tested on: Influenza A Virus (PR8); assay: Influenza PR8 qPCR assay (viral RNA release into media) in A549 cells
smiles,measurement,setting,value
CCOC(=O)C1=C[C@@H](OC(CC)CC)[C@H](NC(C)=O)[C@@H](N)C1 [Oseltamivir],CC50,[1],> 100000 nM
same,EC50,[2],257 ± 40 nM
same,EC90,[2],1500 ± 209 nM
NC(=O)c1nc(F)c[nH]c1=O [Favipiravir],CC50,[1],> 100000 nM
same,EC50,[2],1200 ± 135 nM
same,EC90,[2],6200 ± 332 nM
"CC(C)C(=O)OC[C@H]1O[C@@H](n2ccc(NO)nc2=O)[C@H](O)[C@@H]1O [Molnupiravir, reference compound]",CC50,[3]; MOI of 2,> 100000 nM
same,EC50,"[4]; MOI of 2, Huh7 cells",25 ± 9 nM
same,EC90,"[4]; MOI of 2, Huh7 cells",137 ± 23 nM
"O=[N+]([O-])c1ccc(Nc2ccc(Cl)c(C(F)(F)F)c2)c2nonc12 [Compound 5342191, N-[4-chloro-3-(trifluoromethyl)phenyl]-7-nitro-2,1,3-benzoxadiazol-4-amine]",CC50,[3]; MOI of 0.01,> 1000 nM
same,CC50,[3]; MOI of 2,34000 ± 755 nM
same,reduction in virus yield (maximal effect),[5],~ 1000 fold
same,suppression of the release of SARS-CoV-2,[6],approximately 80%
same,reduction of SARS-CoV-2 nucleocapsid (N) protein expression,[7],approximately 90%
same,reduction of viral genomic RNA accumulation,[8],~ 50%
same,oral bioavailability,[9],orally bioavailable
same,blood concentration maintained,"[9]; oral dose of 30 mg/kg, up to 8 h after administration, 30 mg/kg",2 µg/mL and 5.5 µM
same,body weight / gross necroscopy findings,[10]; 5342191-treated mice,absence of significant changes in body weight
same,tolerability,"[10]; daily oral dose of 40 mg/kg over 7 days, mice",well tolerated
same,HCoV-OC43 replication in human lung organoids,[11],effectively blocked
same,SARS-CoV-2 replication in human lung organoids,[12],effectively blocked
same,effect on cell metabolism,[13],limited effect
same,EC50,[14],750 nM
same,EC90,[14],1750 nM
same,EC50,[2],75 ± 17 nM
same,EC90,[2],99 ± 8 nM
same,inhibition of viral release into the media,[15],over 90%
same,reduction in infectious virus yield,[16],over 90%
same,EC50,[4]; MOI of 0.01,73 ± 13 nM
same,EC90,[4]; MOI of 0.01,857 ± 56 nM
same,EC50,"[4]; MOI of 2, Huh7 cells",1200 ± 196 nM
same,EC90,"[4]; MOI of 2, Huh7 cells",2500 ± 282 nM
same,EC50,[17]; MOI of 0.01,47 ± 13 nM
same,EC90,[17]; MOI of 0.01,149 ± 55 nM
same,EC50,[17]; MOI of 2,51 ± 42 nM
same,EC90,[17]; MOI of 2,104 ± 23 nM
"CC(C)(C)NC(=O)N[C@H](C(=O)N1C[C@H]2[C@@H]([C@H]1C(=O)NC(CC1CCC1)C(=O)C(N)=O)C2(C)C)C(C)(C)C (stereo partly drawn) [Boceprevir, reference compound]",CC50,[3]; MOI of 2,> 100000 nM
same,EC50,"[4]; MOI of 2, Huh7 cells",111 ± 24 nM
same,EC90,"[4]; MOI of 2, Huh7 cells",1200 ± 95 nM
